In US11787816B2, “Chlorin compound, and preparation and use thereof” (Southwest Jiaotong University, priority 2021, dated 2023):
Read-outs that look alike come from different tables or passages of the source.

Legend:
[1] = system: murine mammary carcinoma 4T1 cells; experiment: Photosensitizer-mediated PDT, in vitro proliferation (MTT), 4T1; type: cell-based; conditions: for viability at 10 µg/mL / cell viability (%), +8 J/cm^2 / cell viability (%), No light: 10 μg/mL
Description: (§1) Several kinds of tumor cells (human cervical cancer Hela cells, human hepatocellular carcinoma huh-7 cells and murine mammary carcinoma 4T1 cells) cultured in vitro from a variety of tissues were taken as cell models, so as to investigate the photodynamic effects mediated by different doses of CEFN, CEFO, Ce6 and HPPH on the three different tumor cells (n=3). The specific experimental procedures were carried out as follows.
(§2) Cells in the logarithmic growth phase were harvested and seeded in a 24-well plate. After growing to a confluence of 70-80%, the cells were randomly divided into a control group (free of drug and light irradiation), a drug group and a photodynamic group. The CEFN, CEFO, Ce6 and HPPH were added respectively in dark, and for each drug, four final concentrations 1, 2, 5, and 10 μg/mL were set with 3 replicates for each group. After the co-incubation, the groups were treated individually. Regarding the photodynamic group, the light irradiation was performed at a wavelength of 660 nm and three different light intensities, i.e., 2, 4 and 8 J/cm^2. After that, each group was digested, and were inoculated into a 96-well plate at 100 μL per well with 4 replicates for each treatment. 24 hours later, the 96-well plate was subjected to MTT assay as follows. Each well was added with 20 μL of MTT (3-4,5-dimethylthiazol-2,5-diphenyltetrazolium bromide) solution in the dark and incubated for 4 hours. The supernatant was discarded, and the residue was dissolved with 150 μL of dimethyl sulfoxide for 15 min. After that, the 96-well plate was measured by a microplate reader for the absorbance (OD value). The relative cell viability was calculated as follows: relative cell viability=OD value of experimental group/OD value of control group*100%.
(§3) In this experiment, photodynamic effect mediated by the compounds (except CEFO and CEFN) in different Examples of this disclosure on the murine mammary carcinoma 4T1 cells was investigated. The experimental procedures are carried out as follows. Cells in the logarithmic growth phase were harvested and seeded in a 24-well plate. After growing to a confluence of 70-80%, the cells were randomly divided into multiple photodynamic groups and multiple no-light control groups. The compounds (as shown in Table 8a) with a final concentration of 10 μg/mL were added to each group respectively in dark with 3 replicates for each group, so as to co-incubate the cells with the drug. Regarding the multiple photodynamic groups, the light irradiation was performed at a wavelength of 660 nm and the light intensity of 8 J/cm^2. After that, each group was digested, and were inoculated into a 96-well plate at 100 μL per well with 4 replicates for light treatment and no light treatment. 24 hours later, the 96-well plate was measured by MTT assay as follows. Each well was added with 20 μL of MTT (3-4,5-dimethylthiazol-2,5-diphenyltetrazolium bromide) solution in the dark and incubated for 4 hours. The supernatant was discarded, and the residue was dissolved with 150 μL of dimethyl sulfoxide for 15 min. After that, the 96-well plate was measured by a microplate reader for the absorbance (OD value). The relative cell viability of the murine mammary carcinoma 4T1 cells was calculated as follows according to the measured absorbance (OD value) in each group: relative cell viability=OD value of experimental group/OD value of control group*100%.

[2] = as above; type: cell-based, murine; conditions: mouse, 4T1 cells, no light
Description: as §1, §2, §3

[3] = system: murine mammary carcinoma 4T1 cells; experiment: Antitumor activity as sonosensitizers (SDT) on tumor-bearing mice; type: in vivo
Description: The murine mammary carcinoma cells (4T1 line) were subjected to adherent culture. After growing to a confluence of 70%-80%, the cells in the culture flask were routinely digested, centrifuged and counted, and then resuspended with 0.85% normal saline to a density of 1×10^7 cells/mL. The cell suspension was injected into the left lateral middle axillary subcutaneous part of […] Bal b/c healthy mice (female, aged 6-8 weeks) at 0.1 mL/mouse. When the tumor diameter, which was observed every other day, reached 0.6-0.8 cm, the mice with well-growing tumors and no ulcers on the epidermis were selected for grouped treatment.
Mice with similar body weight and uniform tumor size are selected and randomly divided into 6 groups with 6 mice for each group. 48 h after inoculation, the mice were subjected to drug administration separately from the tail vein by group.
[…] 6 h after drug administration, each group of mice was anesthetized by intraperitoneal injection with 0.2 mL of 1% pentobarbital sodium. Then the mice were fixed to allow the tumor growth site exposed. The SDT group was treated using an ultrasonic therapeutic apparatus at an impulse waveform of 1.0 MHz and power of 3.0 W/cm^2 for 3 min. 7 days after SDT, the animals were sacrificed. The tumor was stripped and weighed, and the body weight was recorded.

[4] = Photosensitizer-mediated PDT, in vitro proliferation (MTT), huh-7; type: cell-based, human; conditions: human, huh-7 cells, no light, read-out: cell viability (%)
Description: as §1, §2

[5] = system: human hepatocellular carcinoma huh-7 cells; experiment: as above; type: cell-based; conditions: Homo sapiens, light or radiation study, 660 nm, 8 J/cm^2, read-out: cell viability (%)
Description: as §1, §2

[6] = Photosensitizer-mediated PDT, in vitro proliferation (MTT), Hela; type: cell-based, human; conditions: human, Hela cells, Hela, no light, read-out: cell viability (%)
Description: as §1, §2

[7] = system: human cervical cancer Hela cells; experiment: as above; type: cell-based
Description: as §1, §2

[8] = background statement; cited from earlier work
[9] = Mus musculus, light or radiation study, Table 8a, 660 nm, 8 J/cm^2, read-out: cell viability (%), +8 J/cm^2
[10] = Table 8a, read-out: cell viability (%), No light
[11] = 5 mg/kg tail vein, SDT 1.0 MHz, 3.0 W/cm^2, 3 min, 6 h after dosing, 7 days after SDT
[12] = 5 mg/kg, SDT, mice, in g (unit assumed)

CCCCCCCCNCc1c(C)c2cc3nc(c(C)c4[nH]c(cc5nc(cc1[nH]2)C(C)=C5CC)c(C)c4C(=O)O)[C@@H](CCC(=O)O)[C@@H]3C [Example 24]
viability at 10 µg/mL [1, 9]: 9 ± 5% | viability at 24 h, 10 μg/mL [2, 10]: 100 ± 2%

CCCCCCNCc1c(C)c2cc3nc(c(C)c4[nH]c(cc5nc(cc1[nH]2)C(C)=C5CC)c(C)c4C(=O)O)[C@@H](CCC(=O)O)[C@@H]3C [Example 16, 3-n-hexylaminomethyl-3-devinyl-chlorin e4]
cell viability (%), +8 J/cm^2 ([1]; Table 8a, 660 nm): 7 ± 5% | cell viability (%), No light ([1]; Table 8a): 103 ± 3%

C=Cc1c(C)c2cc3nc(c(CC(=O)O)c4[nH]c(cc5nc(cc1[nH]2)C(C)=C5CC)c(C)c4C(=O)O)[C@@H](CCC(=O)O)[C@@H]3C [Ce6, reference compound]
viability at 1 µg/mL ([1]; Mus musculus, light or radiation study, 1 μg/mL, 660 nm, 8 J/cm^2, read-out: cell viability (%)): 88 ± 2% | viability at 2 µg/mL ([1]; Mus musculus, light or radiation study, 2 μg/mL, 660 nm, 8 J/cm^2, read-out: cell viability (%)): 79 ± 3% | viability at 5 µg/mL ([1]; Mus musculus, light or radiation study, 5 μg/mL, 660 nm, 8 J/cm^2, read-out: cell viability (%)): 54 ± 3% | viability at 10 µg/mL ([1]; Mus musculus, light or radiation study, 660 nm, 8 J/cm^2, read-out: cell viability (%)): 36 ± 1% | viability at 24 h, 1 μg/mL ([2]; 1 μg/mL, read-out: cell viability (%)): 91 ± 2% | viability at 24 h, 2 μg/mL ([2]; 2 μg/mL, read-out: cell viability (%)): 90 ± 3% | viability at 24 h, 5 μg/mL ([2]; 5 μg/mL, read-out: cell viability (%)): 86 ± 4% | viability at 24 h, 10 μg/mL ([2]; read-out: cell viability (%)): 85 ± 4% | Inhibitory rate (average ± SD, %) [3, 11]: 53.3 ± 2.8% | Tumor weight (average ± SD, g) [3, 11]: 0.080 ± 0.005 g | Body weight At the beginning [3, 12]: 20.5 ± 0.4 | Body weight At the end [3, 12]: 21.4 ± 0.5 | viability at 24 h, 1 μg/mL ([4]; 1 μg/mL): 96 ± 1% | viability at 24 h, 2 μg/mL ([4]; 2 μg/mL): 94 ± 2% | viability at 24 h, 5 μg/mL ([4]; 5 μg/mL): 90 ± 2% | viability at 24 h, 10 μg/mL ([4]; 10 μg/mL): 87 ± 2% | viability at 1 µg/mL ([5]; 1 μg/mL): 42 ± 3% | viability at 2 µg/mL ([5]; 2 μg/mL): 37 ± 3% | viability at 5 µg/mL ([5]; 5 μg/mL): 37 ± 2% | viability at 10 µg/mL ([5]; 10 μg/mL): 32 ± 3% | viability at 24 h, 1 μg/mL ([6]; 1 μg/mL): 92 ± 3% | viability at 24 h, 2 μg/mL ([6]; 2 μg/mL): 89 ± 2% | viability at 24 h, 5 μg/mL ([6]; 5 μg/mL): 86 ± 4% | viability at 24 h, 10 μg/mL ([6]; 10 μg/mL): 83 ± 3% | viability at 1 µg/mL ([7]; Homo sapiens, light or radiation study, Hela, 1 μg/mL, 660 nm, 8 J/cm^2, read-out: cell viability (%)): 86 ± 3% | viability at 2 µg/mL ([7]; Homo sapiens, light or radiation study, Hela, 2 μg/mL, 660 nm, 8 J/cm^2, read-out: cell viability (%)): 76 ± 3% | viability at 5 µg/mL ([7]; Homo sapiens, light or radiation study, Hela, 5 μg/mL, 660 nm, 8 J/cm^2, read-out: cell viability (%)): 38 ± 2% | viability at 10 µg/mL ([7]; Homo sapiens, light or radiation study, Hela, 10 μg/mL, 660 nm, 8 J/cm^2, read-out: cell viability (%)): 21 ± 1% | toxicity to the cells when the drug is used alone without photodynamic treatment ([7]; summary statement for Hela, huh-7 and 4T1 cells, no light): toxic to the cells

CCCNCc1c(C)c2cc3nc(c(C)c4[nH]c(cc5nc(cc1[nH]2)C(C)=C5CC)c(C)c4C(=O)O)[C@@H](CCC(=O)O)[C@@H]3C [Example 28]
viability at 10 µg/mL [1, 9]: 7 ± 4% | viability at 24 h, 10 μg/mL [2, 10]: 104 ± 1%

2-(1-n-hexyloxy)ethyl chlorin f sodium salt
water solubility [8]: water-soluble

CCCCCNCc1c(C)c2cc3nc(c(C)c4[nH]c(cc5nc(cc1[nH]2)C(C)=C5CC)c(C)c4C(=O)O)[C@@H](CCC(=O)O)[C@@H]3C [Example 26]
viability at 10 µg/mL [1, 9]: 6 ± 5% | viability at 24 h, 10 μg/mL [2, 10]: 102 ± 1%

CCCCCCCCCCNCc1c(C)c2cc3nc(c(C)c4[nH]c(cc5nc(cc1[nH]2)C(C)=C5CC)c(C)c4C(=O)O)[C@@H](CCC(=O)O)[C@@H]3C [Example 22]
viability at 10 µg/mL [1, 9]: 10 ± 4% | viability at 24 h, 10 μg/mL [2, 10]: 99 ± 2%

CCCCCCCCCCCNCc1c(C)c2cc3nc(c(C)c4[nH]c(cc5nc(cc1[nH]2)C(C)=C5CC)c(C)c4C(=O)O)[C@@H](CCC(=O)O)[C@@H]3C [Example 21]
viability at 10 µg/mL [1, 9]: 9 ± 2% | viability at 24 h, 10 μg/mL [2, 10]: 101 ± 1%

CCCCCCCCCCCOCc1c(C)c2cc3nc(c(C)c4[nH]c(cc5nc(cc1[nH]2)C(C)=C5CC)c(C)c4C(=O)O)[C@@H](CCC(=O)O)[C@@H]3C [Example 6]
cell viability (%), +8 J/cm^2 ([1]; Table 8a, 660 nm): 4 ± 3% | cell viability (%), No light ([1]; Table 8a): 102 ± 2%

CCCCCCOCc1c(C)c2cc3nc(c(C)c4[nH]c(cc5nc(cc1[nH]2)C(C)=C5CC)c(C)c4C(=O)O)C(CCC(=O)O)C3C (stereo not drawn) [Example 1, 3-hexyloxymethyl-3-devinyl-chlorin e4]
cell viability (%), +8 J/cm^2 ([1]; Table 8a, 660 nm): 2 ± 5% | cell viability (%), No light ([1]; Table 8a): 103 ± 1%

CCCCCCCCCNCc1c(C)c2cc3nc(c(C)c4[nH]c(cc5nc(cc1[nH]2)C(C)=C5CC)c(C)c4C(=O)O)[C@@H](CCC(=O)O)[C@@H]3C [Example 23]
viability at 10 µg/mL [1, 9]: 8 ± 5% | viability at 24 h, 10 μg/mL [2, 10]: 102 ± 2%

CCCCCCCCCCCCNCc1c(C)c2cc3nc(c(C)c4[nH]c(cc5nc(cc1[nH]2)C(C)=C5CC)c(C)c4C(=O)O)[C@@H](CCC(=O)O)[C@@H]3C [Example 20]
viability at 10 µg/mL [1, 9]: 6 ± 3% | viability at 24 h, 10 μg/mL [2, 10]: 104 ± 1%

CCCCCCCNCc1c(C)c2cc3nc(c(C)c4[nH]c(cc5nc(cc1[nH]2)C(C)=C5CC)c(C)c4C(=O)O)[C@@H](CCC(=O)O)[C@@H]3C [Example 25]
viability at 10 µg/mL [1, 9]: 5 ± 3% | viability at 24 h, 10 μg/mL [2, 10]: 100 ± 2%

CCCCNCc1c(C)c2cc3nc(c(C)c4[nH]c(cc5nc(cc1[nH]2)C(C)=C5CC)c(C)c4C(=O)O)[C@@H](CCC(=O)O)[C@@H]3C [Example 27]
viability at 10 µg/mL [1, 9]: 6 ± 2% | viability at 24 h, 10 μg/mL [2, 10]: 103 ± 3%
